Like-named read-outs stand apart in the source and are kept apart here.
How the values were obtained:
[1] = in vivo
clinical = conditions: human, plasma (sorafenib); sample for sirolimus not named, oral
[2] = cited from earlier work
[3] = for AUC, median relative difference (range) after initiation of combination therapy / Cmax, median relative difference (range) after initiation of combination therapy: combination with the interacting drug vs drug alone, n=6; for Ka, population estimate: one-compartment NONMEM model, n = 6 per drug
[4] = day 28 combination vs day 14 alone
CYP3A4 = conditions: cited from earlier work
[5] = daily oral dosing, phase I trial in cancer patients

AUC, median relative difference (range) after initiation of combination therapy [1]	Cmax, median relative difference (range) after initiation of combination therapy ([3]; listed as Sorafenib)	Cmax, median relative difference (range) after initiation of combination therapy ([4]; listed as Sunitinib)	Structure (SMILES)	Vd/F (clinical)	Dose well tolerated [2, 5]	Maximum tolerated dose [2, 5]	Dose administered without dose limiting toxicity ([2]; weekly dosing, ongoing study at the University of Chicago)	AUC, median relative difference (range) after initiation of combination therapy [3]	Cmax, median relative difference (range) after initiation of combination therapy [3]	Cmax, median relative difference (range) after initiation of combination therapy ([3]; listed as Sirolimus)	Ka, population estimate [3]	AUC, median relative difference (range) after initiation of combination therapy [4]	Cmax, median relative difference (range) after initiation of combination therapy [4]	Cmax, median relative difference (range) after initiation of combination therapy ([4]; listed as Sirolimus)	Effect of inhibitors of CYP3A4 on pharmacokinetics (CYP3A4)
61.6 (−79.7, 1031.2) %	–	–	CCNCCNC(=O)c1c(C)[nH]c(/C=C2\C(=O)Nc3ccc(F)cc32)c1C [SU12662]	–	–	–	–	–	–	–	–	–	–	–	–
–	–	–	CO[C@H]1C[C@@H]2CC[C@@H](C)[C@@](O)(O2)C(=O)C(=O)N2CCCC[C@H]2C(=O)O[C@H]([C@H](C)C[C@@H]2CC[C@@H](O)[C@H](OC)C2)CC(=O)[C@H](C)/C=C(\C)[C@@H](O)[C@@H](OC)C(=O)[C@H](C)C[C@H](C)/C=C/C=C/C=C/1C [sirolimus, Sirolimus]	138 L	3 mg	6 mg	90 mg	43.7 (10.5, 84.7) %	3.9%	3.9 (1.3, 11.0) %	2.01 h⁻¹	−47.7 (−75.4, 1394.8) %	−29.8%	−29.8 (−77.4, 28.8) %	–
–	−40.7 (−87.0, 351.2) %	–	CNC(=O)c1cc(Oc2ccc(NC(=O)Nc3ccc(Cl)c(C(F)(F)F)c3)cc2)ccn1 [sorafenib, Sorafenib]	807 L	–	–	–	6.1 (−17.3, 22.0) %	−40.7%	–	1.07 h⁻¹	–	–	–	only modestly affected
–	–	19.6 (−23.5, 45.4) %	CCN(CC)CCNC(=O)c1c(C)[nH]c(/C=C2\C(=O)Nc3ccc(F)cc32)c1C [sunitinib, Sunitinib]	–	–	–	–	–	–	–	–	54.3 (−34.3, 232.8) %	19.6%	–	only modestly affected

— article PMC3077032 (Clinical cancer research : an official journal of the …, 2011)
